Values of other authors as cited in patent US10981928B2, “Methods of making low odor choline salts of an organic compound” (HALO LIFE SCIENCE, LLC, priority 2016, dated 2021).
≈ marks a conversion by molar mass, not a printed value.

Assays:
[1] = PEG 400 at 37° C.; comparison value
[2] = comparison value

solubility in PEG 400 [1]: 8000 µg/mL (≈ 26.5 mM) | solubility in water [2]: ~4 µg/mL (≈ 0.0132 mM)
SMILES: O=c1oc2c(O)c(O)cc3c(=O)oc4c(O)c(O)cc1c4c23 [ellagic acid]
